The values below come from publication PMC11847541, “Liver fatty acid binding protein FABP1 transfers substrates to cytochrome P450 4A11 for catalysis” (The Journal of Biological Chemistry, 2025).

Like-named read-outs stand apart in the source and are kept apart here. Some results are limits rather than exact numbers.

One assay deals with FABP3. Set-up: method as in PMID 11170430. The following applies: human heart FABP (FABP3); cited from earlier work.
For assay [1], the target named is T1, FABP1 (Homo sapiens, UniProt P07148).
T1 construct: GST (N, cleaved yes); made in house; host or cells: Escherichia coli DH5α
T1 sequence (P07148 with tags, fused parts or gaps): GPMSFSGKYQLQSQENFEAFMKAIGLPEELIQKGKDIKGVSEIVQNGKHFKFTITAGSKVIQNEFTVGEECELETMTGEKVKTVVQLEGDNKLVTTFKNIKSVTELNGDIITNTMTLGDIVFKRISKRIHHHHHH
The experiment in a line: DAUDA displacement fluorescence titrations of DAUDA–FABP1 with fatty acids, fit in KinTek Explorer. The class given is binding. An excerpt:
The FABP–DAUDA system was used to screen saturated fatty acids (C12 to C18) for binding to FABP, and the Kd values were estimated in competition with the fluorophore (using its known Kd) with the kinetic modeling software KinTek Explorer. The general model is shown in Fig. 5A, where the substrate is competed against the fluorescent DAUDA–FABP1 complex for binding, yielding a ternary DAUDA–FABP1–substrate complex that is accompanied by an attenuation in fluorescence.
Figure 5 Fluorescence titrations of DAUDA–FABP1 with fatty acids (“forward” titrations).A, model of all binding equilibria accounted for in the DAUDA displacement assays. In the fluorescence assays (λex = 335 nm), DAUDA (D) binds to FABP1 (F) to form a fluorescent (indicated with yellow flash) complex (FD), with which a lipid (S) is then competed against for binding. The binding of S attenuates the fluorescence (denoted with a smaller yellow flash) and forms a ternary complex (FDS). High concentrations of S may completely displace D to form FSS, a spectroscopically silent complex. Using this method, fluorescence titrations were carried out with the fatty acids (B) laurate, (C) myristate, (D) palmitate, (E) 16-hydroxypalmitate, and (F) stearate. Fluorescence at the emission maximum (482 nm) was monitored (as in Fig. 4) and normalized to the starting fluorescence (i.e., the FD complex prior to the addition of S). Each data point corresponds to one independent replicate. DAUDA, 11-dansylaminoundecanoic acid; FABP1, fatty acid binding protein.
For the titrations with lipids, solutions of FABP1 (0.5 μM) and DAUDA (0.25 μM) were prepared such that the fluorescent species was not present in excess ([75]). A baseline was recorded with phosphate buffer, and a starting (basis) spectrum was recorded of the FABP–DAUDA complex (1 ml). The lipid solutions were gradually added to the cuvette with gentle mixing (pipetting up and down ∼7× with a pipette tip), and spectra were recorded (Fig. S12A). Control titrations were also performed the same day with solvent alone (Fig. S12B) as a normalizing factor for the lipid titrations as fluorescence attenuation was also observed to a much lesser degree as a solvent effect (Fig. S12C, D). […] The data were processed such that within the lipid titration and the solvent titration, the F482 values were normalized to the starting value (the initial FABP1–DAUDA complex with nothing added, set to 100%). The relative fluorescence of the lipid titration was then normalized to the relative fluorescence of the solvent titration to adjust for fluorescence attenuation observed in the solvent titration (presumably from altering the fluorophore environment). Thus, the data were processed according to y=(F482/F482(initial))lipid/(F482/F482(initial))solvent , and the resulting values were plotted as a function of lipid concentration (Fig. S12E). The curve was imported into KinTek Explorer ([76]) and was fit to a kinetic model (Fig. S13) to determine the Kd values (Table 1). Within the KinTek software, all fluorescent species required fluorescence scaling factors to convert signal to concentration. Scaling factors for the FABP–DAUDA complex, FABP–DAUDA–lipid complex, and DAUDA alone were 460, 92, and 8, respectively.
Figure S12. Data processing for FABP1 titration with palmitate. Fluorescence spectrum of increasing additions of (A) palmitate (0-2 µM, added in C2H5OH) and (B) C2H5OH to a mixture of DAUDA (0.25 µM) and FABP1 (0.5 µM), performed as described in the Experimental Methods (see “Titrations of FABP1 with lipids, DAUDA”). C, fluorescence values at 482 nm (F482) from the titrations presented in parts A and B are normalized to the starting values (DAUDA-FABP1 complex, no volume added). Data are reported as a function of volume of titrant added to the cuvette (black, C2H5OH alone; red, palmitate in C2H5OH). […]

The target in assay [2] is T1, FABP1. The following applies: human FABP1, fluorescence displacement assay; read-out: Kd; cited from earlier work.
Assay [3] addresses T1, FABP1. Set-up: method as in PMID 10852718. The conditions noted are these: ADIFAB system; cited from earlier work.
Assay [4] deals with FABP1. Also on record: method as in PMID 8940102. The following applies: rat protein, cited from earlier work.
Assay [5] concerns the target FABP1. Set-up: method as in PMID 8541331. The conditions noted are these: bovine protein, cited from earlier work.
Setting [6] is: lipid binding to DAUDA-bound FABP1 (DAUDA displacement), read-out: Kd, FD + S ↔ FDS.
The mark [7] stands for this setting: lipid binding to apo-FABP1, estimated via kinetic modeling, read-out: Kd, F + S ↔ FS.
The mark [8] stands for this setting: lipid binding to ternary complex FDS (full displacement of DAUDA), low-affinity site, read-out: Kd, FDS + S ↔ FSS + D.
Where [9] appears, read: high-affinity site, read-out: Kd,1.
Where [10] appears, read: low-affinity site, read-out: Kd,2.

Regarding `O=C(O)CCC/C=C\C/C=C\C/C=C\C/C=C\CCCCCO` [20-HETE, 20-hydroxyeicosatetraenoic acid], the Kd on FABP3 is approximately 0.44 µM.
As to `CCCCCCCCCCCC(=O)O` [Laurate (C12), laurate], the “% Fluorescence” value on FABP1 [1] (lipid 1 µM, FABP1 0.5 µM, DAUDA 0.25 µM, F482 normalized) turned out to be 94.95%; on FABP1 [1] (lipid 2 µM, FABP1 0.5 µM, DAUDA 0.25 µM, F482 normalized) it was 89.77%; on FABP1 [1] (lipid 3.5 µM, FABP1 0.5 µM, DAUDA 0.25 µM, F482 normalized) it was 89.03%; on FABP1 [1] (lipid 5 µM, FABP1 0.5 µM, DAUDA 0.25 µM, F482 normalized), 85.89%; at FABP1 [1] (lipid 7.5 µM, FABP1 0.5 µM, DAUDA 0.25 µM, F482 normalized), 85.69%; on FABP1 [1] (lipid 10 µM, FABP1 0.5 µM, DAUDA 0.25 µM, F482 normalized), 75.3%. Also, the “% Fluorescence” value was found to be 57.47% on FABP1 [1] (lipid 20 µM, FABP1 0.5 µM, DAUDA 0.25 µM, F482 normalized); 47.27% on FABP1 [1] (lipid 35 µM, FABP1 0.5 µM, DAUDA 0.25 µM, F482 normalized); 41.27% on FABP1 [1] (lipid 50 µM, FABP1 0.5 µM, DAUDA 0.25 µM, F482 normalized); 35.15% at FABP1 [1] (lipid 75 µM, FABP1 0.5 µM, DAUDA 0.25 µM, F482 normalized); 31.33% at FABP1 [1] (lipid 100 µM, FABP1 0.5 µM, DAUDA 0.25 µM, F482 normalized); 28.58% at FABP1 [1] (lipid 125 µM, FABP1 0.5 µM, DAUDA 0.25 µM, F482 normalized). Also, the “% Fluorescence” value at FABP1 [1] (lipid 150 µM, FABP1 0.5 µM, DAUDA 0.25 µM, F482 normalized) came out at 29.65%; at FABP1 [1] (lipid 200 µM, FABP1 0.5 µM, DAUDA 0.25 µM, F482 normalized), 27.61%; on FABP1 [1] (lipid 300 µM, FABP1 0.5 µM, DAUDA 0.25 µM, F482 normalized), 25.74%; on FABP1 [1] (lipid 400 µM, FABP1 0.5 µM, DAUDA 0.25 µM, F482 normalized), 23.15%. For the same molecule, on FABP1 [1] (lipid (S) binding to apo-FABP1 (F), kinetic modeling, on-rate 9.0 × 10^7 M^−1 s^−1), the “koff, F + S ↔ FS” value worked out at 2700 s⁻¹. For the same molecule, the Kd at FABP1 [1] (setting [6]) is 18 µM; on FABP1 [1] (setting [7]), 30 µM; on FABP1 [1] (setting [8]), more than 1000 µM. In addition, the “koff, FD + S ↔ FDS” value at FABP1 [1] (lipid binding to DAUDA-bound FABP1 (FD), on-rate 2.3 × 10^7 M^−1 s^−1) came out at 410 s⁻¹.
With `CCCCCCCCCCCCCC(=O)O` [Myristate (C14), myristate], at FABP1 [1] (setting [6]), the Kd came out at 0.86 µM. The Kd on FABP1 [1] (setting [7]) was 2.6 µM. Also, the Kd on FABP1 [1] (setting [8]) came to 43 µM. Also, on FABP1 [1] (read-out: % Fluorescence), the remaining activity at 0.01 µM was 98.3%, the remaining activity at 0.03 µM came to 99.1%, the remaining activity at 0.06 µM was 98.2% and the remaining activity at 0.1 µM is 97.3%. For the same molecule, on FABP1 [1] (read-out: % Fluorescence), the remaining activity at 0.3 µM was 92.9%, the remaining activity at 0.6 µM stood at 81%, the remaining activity at 1 µM came to 71.9% and the remaining activity at 3 µM stood at 42.2%. In addition, at FABP1 [1] (read-out: % Fluorescence), the remaining activity at 6 µM turned out to be 25.9%, the remaining activity at 10 µM worked out at 18.2% and the remaining activity at 30 µM is 13.1%. Also, the koff at FABP1 [1] (read-out: koff, F + S ↔ FS) stood at 240 s⁻¹. The koff on FABP1 [1] (read-out: koff, FD + S ↔ FDS) turned out to be 20 s⁻¹. Besides, the koff on FABP1 [1] (read-out: koff, FDS + S ↔ FSS + D) is 980 s⁻¹.
`CCCCCCCCCCCCCCCCCC(=O)O` [Stearate (C18), stearate]: at FABP1 [1] (lipid 0.01 µM, FABP1 0.5 µM, DAUDA 0.25 µM, F482 normalized, read-out: % Fluorescence), the remaining activity at 0.01 µM is 92.3%. On FABP1 [1] (lipid 0.025 µM, FABP1 0.5 µM, DAUDA 0.25 µM, F482 normalized), the remaining activity at 0.025 µM is 92.5%. The molecule also registered a remaining activity at 0.05 µM on FABP1 [1] (lipid 0.05 µM, FABP1 0.5 µM, DAUDA 0.25 µM, F482 normalized) of 87.6%. In addition, the remaining activity at 0.075 µM on FABP1 [1] (lipid 0.075 µM, FABP1 0.5 µM, DAUDA 0.25 µM, F482 normalized) is 81.3%. The remaining activity at 0.1 µM at FABP1 [1] (lipid 0.1 µM, FABP1 0.5 µM, DAUDA 0.25 µM, F482 normalized, read-out: % Fluorescence) amounted to 78.3%. For the same molecule, the remaining activity at 0.15 µM at FABP1 [1] (lipid 0.15 µM, FABP1 0.5 µM, DAUDA 0.25 µM, F482 normalized) came to 69.4%. This molecule gave a remaining activity at 0.2 µM at FABP1 [1] (lipid 0.2 µM, FABP1 0.5 µM, DAUDA 0.25 µM, F482 normalized) of 61%. Further, the remaining activity at 0.25 µM at FABP1 [1] (lipid 0.25 µM, FABP1 0.5 µM, DAUDA 0.25 µM, F482 normalized) was found to be 54.2%. At FABP1 [1] (lipid 0.35 µM, FABP1 0.5 µM, DAUDA 0.25 µM, F482 normalized), this molecule yielded a remaining activity at 0.35 µM of 44.4%. The same molecule registered a remaining activity at 0.45 µM on FABP1 [1] (lipid 0.45 µM, FABP1 0.5 µM, DAUDA 0.25 µM, F482 normalized) of 37.1%. Besides, at FABP1 [1] (lipid 0.6 µM, FABP1 0.5 µM, DAUDA 0.25 µM, F482 normalized, read-out: % Fluorescence), the remaining activity at 0.6 µM came out at 31.3%. The molecule also had a remaining activity at 0.9 µM at FABP1 [1] (lipid 0.9 µM, FABP1 0.5 µM, DAUDA 0.25 µM, F482 normalized) of 24.2%. For the same molecule, the remaining activity at 1.15 µM at FABP1 [1] (lipid 1.15 µM, FABP1 0.5 µM, DAUDA 0.25 µM, F482 normalized) came to 24.1%. This molecule also gave a remaining activity at 1.4 µM at FABP1 [1] (lipid 1.4 µM, FABP1 0.5 µM, DAUDA 0.25 µM, F482 normalized) of 23.6%. Moreover, at FABP1 [1] (lipid 1.9 µM, FABP1 0.5 µM, DAUDA 0.25 µM, F482 normalized), the remaining activity at 1.9 µM was 23.3%. Moreover, the koff at FABP1 [1] (lipid (S) binding to apo-FABP1 (F), kinetic modeling, on-rate 9.0 × 10^7 M^−1 s^−1, read-out: koff, F + S ↔ FS) was 6.2 s⁻¹; on FABP1 [1] (lipid binding to DAUDA-bound FABP1 (FD), on-rate 2.3 × 10^7 M^−1 s^−1, read-out: koff, FD + S ↔ FDS), 0.48 s⁻¹; on FABP1 [1] (lipid binding to ternary complex FDS (full displacement of DAUDA), read-out: koff, FDS + S ↔ FSS + D), 770 s⁻¹. The Kd at FABP1 [1] (setting [6]) is 0.021 µM; at FABP1 [1] (setting [7]), 0.069 µM; on FABP1 [1] (setting [8]) it was 34 µM; on FABP1 [2], 0.029 ± 0.002 µM; on FABP1 [3], 0.023 µM.
Take `CCCCC/C=C\C/C=C\C/C=C\C/C=C\CCCC(=O)O` [arachidonate]: the Kd on FABP3 is approximately 0.05 µM.
In the case of `CCCCC/C=C\C/C=C\CCCCCCCC(=O)O` [linoleate], the Kd is approximately 0.01 µM on FABP1 [4] (setting [9]) and approximately 0.2 µM on FABP1 [4] (setting [10]).
Take `CCCCCCCC/C=C\CCCCCCCC(=O)O` [oleate]: the Kd at FABP1 [5] (setting [9]) was 0.26 µM; on FABP1 [5] (setting [10]), more than 5 µM.

The term Kd denotes the free concentration of one partner at which half of the binding sites on the other are occupied at equilibrium, for simple one-to-one binding. As usually defined, the koff is a measure of how fast the partners let go of each other.
